Experiments:
[1] = tested on: rats with the normal body temperature; assay: Hypothermic effect of desacyl ghrelin in rats with normal body temperature (back/tail surface temperature by thermography); format: in vivo, rat; conditions: male Wistar rats
Experimental: Male Wistar rats (9 to 10 weeks old) were used as experimental animals.
The administration to the animals was performed by a single dose of intraperitoneal or intracerebroventricular injection. The dose was 3 nmol/rat for intraperitoneal administration and 0.5 nmol/rat for intracerebroventricular administration, regardless of the weight of the animals. The weight of the rats varied from 350.2 to 375.8 g.
The back or tail surface temperature of the animals was measured for 1 hour at intervals of 1 minute by thermography using FLIR SC620 (software name: FLIR Rsearch IR) made by FLIR Systems Inc. The body temperature values measured by thermography are shown as increase and decrease from the zero reference point obtained by measurement of the body temperature for 10 minutes prior to the intraperitoneal injection.
The laboratory was maintained at room temperature and the rats were carried thereinto. […] As another control, 200 μl/rat of physiological saline was intraperitoneally injected to the rats.
As a control, 0.5 nmol/rat of the rat-derived ghrelin was intracerebroventricularly administered the rats. As another control, 200 μl/rat of physiological saline was intracerebroventricularly administered to the rats.
The back and tail surface temperatures were measured by thermography in this Example.

rats with hyperthermia = assay: Suppressive effect of desacyl ghrelin against body temperature increase in rats with hyperthermia (rectal temperature, survival); format: in vivo, rat
Experimental: The rectal temperature was measured with a small animal body temperature controller ATC-101B made by Unique Medical Co., Ltd.
The life or death of each animal was determined in a comprehensive manner based on changes in the heart rate, respiratory rate, and body temperature, the amount of activity, the response to a physical stimulation, etc.
This experiment was performed in the same manner as in Example 1 unless otherwise stated.
While maintaining the air temperature in the laboratory at 33 to 35° C., the humidity was increased from 30% (at the beginning of the experiment) to 75% (at the end of the experiment), and thus the laboratory conditions were gradually changed to high temperature and high humidity conditions. The rats were then carried into the laboratory. The rats were housed in a plastic cage in groups of three each. […] As a control, 200 μl/rat of physiological saline was intraperitoneally injected to the rats.
At the elapsed time of 110 minutes (80 minutes after the intraperitoneal injection), the rats were transferred from the laboratory to room temperature.
At the elapsed time of 130 minutes (100 minutes after the intraperitoneal injection), the life or death of each rat was determined by visual observation and palpation.
The body temperature was measured at the rectum in this Example.

[2] = tested on: secretion of growth hormone (GH) from the pituitary gland; conditions: Broglio et al. 2004; cited from earlier work

## desacyl ghrelin
[1]; 0.5 nmol/rat intracerebroventricular, 10 to 30 minutes after injection (FIG. 3)
  hypothermic effect in back surface temperature compared with ghrelin-administered group: higher hypothermic effect
[1]; 3 nmol/rat intraperitoneal, tail surface temperature (FIG. 2)
  heat dissipation effect compared with ghrelin: more excellent than that of ghrelin
[1]; 3 nmol/rat intraperitoneal, thermography (FIG. 2)
  tail surface temperature: increased
[1]; room temperature, 3 nmol/rat intraperitoneal, 5 to 60 minutes after injection, thermography (FIG. 1)
  back surface temperature, lower than that of the physiological-saline administered group: 0.3 to 0.8 °C
Rats with hyperthermia; elapsed time 130 minutes (100 minutes after 10 nmol/rat i.p.), three rats per group, two of three control rats died
  survival (life or death of each rat): all the three rats in the desacyl ghrelin-administered group survived
Rats with hyperthermia; rectal, elapsed time 0 minutes at 33 to 35° C. (before the injection)
  Body temperature of rats: 36.1 ± 0.1 °C
Rats with hyperthermia; rectal, elapsed time 50 to 110 minutes (20 to 80 minutes after 10 nmol/rat i.p.), p<0.05 or 0.01
  body temperature, lower than that of the physiological saline-administered group: 0.3 to 1.2 °C
Rats with hyperthermia; rectal, elapsed time 10 minutes (before the injection)
  Body temperature of rats: 37.0 ± 0.1 °C
Rats with hyperthermia; rectal, elapsed time 20 minutes (before the injection)
  Body temperature of rats: 38.2 ± 0.2 °C
Rats with hyperthermia; rectal, elapsed time 30 minutes (time of intraperitoneal injection, 10 nmol/rat)
  Body temperature of rats: 38.8 ± 0.2 °C
Rats with hyperthermia; rectal, elapsed time 40 minutes (10 minutes after 10 nmol/rat i.p.)
  Body temperature of rats: 39.2 ± 0.2 °C
Rats with hyperthermia; rectal, elapsed time 50 minutes (20 minutes after 10 nmol/rat i.p.)
  Body temperature of rats: 39.7 ± 0.0 °C
Rats with hyperthermia; rectal, elapsed time 60 minutes (30 minutes after 10 nmol/rat i.p.)
  Body temperature of rats: 39.9 ± 0.1 °C
Rats with hyperthermia; rectal, elapsed time 70 minutes (40 minutes after 10 nmol/rat i.p.)
  Body temperature of rats: 40.0 ± 0.3 °C
Rats with hyperthermia; rectal, elapsed time 80 minutes (50 minutes after 10 nmol/rat i.p.)
  Body temperature of rats: 40.2 ± 0.2 °C
Rats with hyperthermia; rectal, elapsed time 90 minutes (60 minutes after 10 nmol/rat i.p.)
  Body temperature of rats: 40.0 ± 0.2 °C
Rats with hyperthermia; rectal, elapsed time 100 minutes (70 minutes after 10 nmol/rat i.p.)
  Body temperature of rats: 40.1 ± 0.2 °C
Rats with hyperthermia; rectal, elapsed time 110 minutes (80 minutes after 10 nmol/rat i.p.)
  Body temperature of rats: 40.3 ± 0.1 °C
[2]
  activity to increase the secretion of growth hormone (GH) from the pituitary gland: almost no activity

Source: patent US9555077B2 (UNIVERSITY OF MIYAZAKI, priority 2011, dated 2017)
